Columns and labels:
[1] = HPLC of methanol extracts: drug loading of coated ePTFE hernia mesh; type: physicochemical; settings: soak in 10 mg/ml of each drug in methanol, ~17 hours, 4° C
Method: Specimens were then removed from drug solution and dried in air. Following air-drying, specimens were rinsed in either methanol) or water. For the methanol rinse, specimens were suspended using forceps and agitated by hand in two consecutive 15 ml methanol rinses for 15 seconds, then allowed to air dry. For the water rinse, specimens were transferred to 10 ml of deionized water in conical tubes and aggressively vortexed for 2 minutes. Specimens were then allowed to air dry. The above steps resulting in the following four conditions: (a) 1 coat—water rinse; (b) 3 coats—water rinse; (c) 1 coat—methanol rinse; and (d) 3 coat—methanol rinse.
Dried specimens were individually extracted in 1 ml of methanol at 4° C. for 64 or 76 hours. 20 μl of each extract were run on HPLC to assess the effects of rinse method and number of coating cycles on drug loading of the coatings. HPLC conditions were as follows: 30° C.; 250×3 mm C-18 with 5 μm packing; 280 nm absorbance; Channel A—35 mM Na2HPO4 with 1 vol % triethylamine, pH=8.1 w/phosphoric acid; Channel B—acetonitrile/Running parameters at 1 ml/min: (i) 0-10 minutes—gradient 0-50 vol % Channel B; (ii) 10-20 minutes—50 vol % Channel B; (iii) 20-25 minutes—20-0 vol % Channel B.

[2] = HPLC test of drug stability to curing light in coating composition components
Method: HPLC tests were performed to assess the effects of various components of the coating composition on drug stability. HPLC analysis was run on the starting 50 μg/ml drug solution as a control. HPLC parameters were as follows: Channel A=>35 mM sodium phosphate pH=7.5 w/1 v % TEA; Channel B=>acetonitrile; 0-50% B 0-10 min, 50% B 10-13 min, 50-0% B 13-15 min, 0% B 6 min post time; 20 μl injections; 1 ml/min; 30° C.; 335 nm. […] Samples tested included: (1) Solvent+Drug; (2) Solvent+Photoinitiator (PI)+Drug; and (3) Solvent+Monomer Component+PI+Drug. […] The Solvent+PI+Drug (Sample 2) samples were prepared as follows: 1% wt/wt IrgaCure® 2959 was added to the 50 μg/ml drug solution solutions and cured according to the parameters described for Formulation 5 in Table 2. The Solvent+Monomer Component+PI+Drug+Drug (Sample 3) were prepared as follows: ˜3 ml Formulation 5 (Table 2) inspired solution with exception of using the 50 μg/ml drug solution and 20 wt % comonomer as the solvent was created and exposed to cure parameters detailed for Formulation 5 (Table 2) followed by HPLC analysis upon blending 1:1 with methanol, to terminate polymerization reaction/free-radicals. Note: polymerization of small volumes of Formulation 5 results in evaporation of the acetone solvent, thereby concentrating the monomers. […] FIG. 5A depicts HPLC chromatograms from the Sample 1 (dark gray line) and Sample 2 (light gray line) without exposure to light. […] FIG. 5B depicts chromatograms from the Sample 1 samples without light exposure and with light exposure. […] FIG. 5C depicts chromatograms from Sample 2 without light exposure and with light exposure. […] FIG. 5D depicts chromatograms from Sample 1 and Sample 3 after exposure to light.

drug stability (HPLC peaks) ([2]; 50 μg/ml in acetone, with or without photoinitiator, without exposure to light, FIG. 5A): stable
drug stability (HPLC peaks) ([2]; Sample 1, solvent alone, with light exposure, FIG. 5B): degraded by light exposure
Structure (SMILES): CO[C@H]1/C=C/O[C@@]2(C)Oc3c(C)c(O)c4c(O)c(c(/C=N/N5CCN(C)CC5)c(O)c4c3C2=O)NC(=O)/C(C)=C\C=C\[C@H](C)[C@H](O)[C@@H](C)[C@@H](O)[C@@H](C)[C@H](OC(C)=O)[C@@H]1C [rifampin]
absorption of drug into polymerized coating [1]: absorbed into the methacrylate coating matrix
drug stability (HPLC peaks) ([2]; Sample 2, solvent + 1% wt/wt IrgaCure 2959, with light exposure, FIG. 5C): did not protect the drugs from light-induced degradation

— US10314912B2, “Polymer coating compositions and coated products” (Ariste Medical, LLC, priority 2012, dated 2019)
